Assay results: patent US9540350B2, “1-substituted, 4-(substituted phenoxymethyl)-1,2,3-triazole compounds with antifungal properties and methods for preparation thereof” (FDC LIMITED, priority 2013, dated 2017)
Converted amounts (≈) assume the structure as drawn. Read-outs that look alike come from different tables or passages of the source.

How the values were obtained:
[1] = system: A. fumigatus ATCC 46645; assay: Antifungal susceptibility, broth dilution MIC (CLSI M38-A); assay type: cell-based; conditions: Aspergillus fumigatus, read-out: Activity against organisms (MIC50) Afm01
Protocol: (§1) The compounds of Formula 1 were tested for antifungal activity against Candida albicans, C. glabrata, C. krusei, C. tropicalis, Cryptococcus neoformans, Aspergillus fumigatus, A. niger and Fusarium proliferatum. In vitro evaluation of antifungal activity was performed by determining the minimum inhibitory concentration (MIC) following standard methods (CLSI: Reference method for broth dilution antifungal susceptibility testing of yeasts; Approved standard, second edition M27-A2, 2002; CLSI: Reference method for broth dilution antifungal susceptibility testing of filamentous fungi; Approved standard M38-A, 2002). Anti-fungal susceptibility testing of these anti-fungal compounds was done by broth dilution method using RPMI 1640 medium with MOPS buffer. Known anti-fungal agent fluconazole was used as positive control. End points were determined after 48 hours visually and by using spectrophotometer wherever necessary. Different dilutions were tried and various sets of experiments performed. The activity parameters are enumerated in Table 4.

[2] = system: F. proliferatum ATCC 10052; assay: as above; assay type: cell-based; conditions: Fusarium proliferatum, read-out: Activity against organisms (MIC50) Fp01
Protocol: as §1

[3] = system: A. niger ATCC 16404; assay: as above; assay type: cell-based; conditions: Aspergillus niger, read-out: Activity against organisms (MIC50) An01
Protocol: as §1

[4] = system: C. albicans ATCC 24433; assay: Antifungal susceptibility, broth dilution MIC (CLSI M27-A2); assay type: cell-based; conditions: Candida albicans, read-out: Activity against organisms (MIC50) Ca01
Protocol: as §1

[5] = system: C. neoformans ATCC 34664; assay: as above; assay type: cell-based, Cryptococcus neoformans; conditions: for MIC50: Cryptococcus neoformans, read-out: Activity against organisms (MIC50) Cn01
Protocol: as §1

[6] = system: C. tropicalis ATCC 750; assay: as above; assay type: cell-based, Candida tropicalis; conditions: for MIC50: Candida tropicalis, read-out: Activity against organisms (MIC50) Ct01
Protocol: as §1

[7] = system: C. krusei ATCC 6258; assay: as above; assay type: cell-based, Candida krusei; conditions: Pichia kudriavzevii, read-out: Activity against organisms (MIC50) Ck01
Protocol: as §1

[8] = system: C. glabrata ATCC 90030; assay: as above; assay type: cell-based, Candida glabrata; conditions: Nakaseomyces glabratus, read-out: Activity against organisms (MIC50) Cg01
Protocol: as §1

[9] = ATCC46645, A. fumigatus ATCC 46645, broth dilution, RPMI 1640 with MOPS, 48 hours
[10] = ATCC10052, F. proliferatum ATCC 10052, broth dilution, RPMI 1640 with MOPS, 48 hours
[11] = ATCC16404, A. niger ATCC 16404, broth dilution, RPMI 1640 with MOPS, 48 hours
[12] = ATCC24433, C. albicans ATCC 24433, broth dilution, RPMI 1640 with MOPS, 48 hours
[13] = ATCC34664, C. neoformans ATCC 34664, broth dilution, RPMI 1640 with MOPS, 48 hours
[14] = ATCC750, C. tropicalis ATCC 750, broth dilution, RPMI 1640 with MOPS, 48 hours
[15] = ATCC6258, C. krusei ATCC 6258, broth dilution, RPMI 1640 with MOPS, 48 hours
[16] = ATCC90030, C. glabrata ATCC 90030, broth dilution, RPMI 1640 with MOPS, 48 hours

MIC50 [1, 9] | MIC50 [2, 10] | MIC50 [3, 11] | MIC50 [4, 12] | MIC50 [5, 13] | MIC50 [6, 14] | MIC50 [7, 15] | MIC50 [8, 16] | SMILES | MIC50 ([1]; ATCC46645, 48 h) | MIC50 ([2]; ATCC10052, 48 h) | MIC50 ([3]; ATCC16404, 48 h) | MIC50 ([4]; ATCC24433, 48 h) | MIC50 ([5]; ATCC34664, 48 h) | MIC50 ([6]; ATCC750, 48 h) | MIC50 ([7]; ATCC6258, 48 h) | MIC50 ([8]; ATCC90030, 48 h) | antifungal activity against Cryptococcus neoformans (in words) ([5]; summary statement) | antifungal activity against Candida tropicalis (in words) ([6]; summary statement)
– | – | – | – | – | – | – | – | O=C(/C=C/c1ccc(Cl)cc1)c1ccc(O)cc1 [Compound 9A-4] | > 8 µg/mL | > 8 µg/mL | > 8 µg/mL | > 8 µg/mL | > 8 µg/mL | > 8 µg/mL | > 8 µg/mL | 32 µg/mL (≈ 124 µM) | – | –
16 µg/mL (≈ 66.6 µM) | > 32 µg/mL | 8 µg/mL (≈ 33.3 µM) | 32 µg/mL (≈ 133 µM) | 32 µg/mL (≈ 133 µM) | > 32 µg/mL | > 32 µg/mL | 16 µg/mL (≈ 66.6 µM) | O=C(/C=C/c1ccc(O)cc1)c1ccc(O)cc1 [Compound 9A-5] | – | – | – | – | – | – | – | – | – | –
> 32 µg/mL | > 32 µg/mL | > 32 µg/mL | > 32 µg/mL | > 32 µg/mL | > 32 µg/mL | > 32 µg/mL | > 32 µg/mL | O=C(/C=C/c1cccs1)c1ccc(O)cc1 [Compound 10A-1] | – | – | – | – | – | – | – | – | – | –
> 8 µg/mL | > 8 µg/mL | > 8 µg/mL | > 8 µg/mL | > 8 µg/mL | > 8 µg/mL | > 8 µg/mL | > 8 µg/mL | COc1ccc(C(=O)/C=C/c2cccs2)cc1 [Compound 10A-2] | – | – | – | – | – | – | – | – | – | –
> 128 µg/mL | > 128 µg/mL | > 128 µg/mL | 0.25 µg/mL (≈ 0.816 µM) | 2 µg/mL (≈ 6.53 µM) | 1 µg/mL (≈ 3.27 µM) | 32 µg/mL (≈ 104 µM) | 1 µg/mL (≈ 3.27 µM) | OC(Cn1cncn1)(Cn1cncn1)c1ccc(F)cc1F [Fluconazole, reference compound] | – | – | – | – | – | – | – | – | weaker antifungal activity | weaker antifungal activity

SMILES | MIC50 [1, 9] | MIC50 [2, 10] | MIC50 [3, 11] | MIC50 [4, 12] | MIC50 [5, 13] | MIC50 [6, 14] | MIC50 [7, 15] | MIC50 [8, 16] | MIC50 ([1]; ATCC46645, 48 h) | MIC50 ([2]; ATCC10052, 48 h) | MIC50 ([3]; ATCC16404, 48 h) | MIC50 ([4]; ATCC24433, 48 h) | MIC50 ([5]; ATCC34664, 48 h) | MIC50 ([6]; ATCC750, 48 h) | MIC50 ([7]; ATCC6258, 48 h) | MIC50 ([8]; ATCC90030, 48 h) | antifungal activity against Cryptococcus neoformans (in words) ([5]; summary statement) | antifungal activity against Candida tropicalis (in words) ([6]; summary statement)
CCCN1CCN(c2ccc(C(C)=O)cc2)CC1 [Compound 11A-1] | > 128 µg/mL | > 128 µg/mL | > 128 µg/mL | > 128 µg/mL | > 128 µg/mL | > 128 µg/mL | > 128 µg/mL | > 128 µg/mL | – | – | – | – | – | – | – | – | – | –
CCCCN1CCN(c2ccc(C(C)=O)cc2)CC1 [Compound 11A-2] | > 64 µg/mL | > 64 µg/mL | > 64 µg/mL | > 64 µg/mL | > 64 µg/mL | > 64 µg/mL | > 64 µg/mL | > 64 µg/mL | – | – | – | – | – | – | – | – | – | –
